Source: PMC5691139, “Structural and functional studies of SAV0551 from Staphylococcus aureus as a chaperone and glyoxalase III” (Bioscience Reports, 2017)

What was measured:
SAV0551 [1] = biological target: T1, SAV0551 (Staphylococcus aureus, UniProt P64312); assay: 1D 1H NMR; format: biochemical; settings: 60 mM methylglyoxal, 50 µM enzyme, 20 mM HEPES pH 7.5, 50 mM KCl, 2 mM DTT, 37°C
T1 construct: gene hchA; monomer ~32 kDa, dimer ~64 kDa
T1 sequence (P64312 1-292): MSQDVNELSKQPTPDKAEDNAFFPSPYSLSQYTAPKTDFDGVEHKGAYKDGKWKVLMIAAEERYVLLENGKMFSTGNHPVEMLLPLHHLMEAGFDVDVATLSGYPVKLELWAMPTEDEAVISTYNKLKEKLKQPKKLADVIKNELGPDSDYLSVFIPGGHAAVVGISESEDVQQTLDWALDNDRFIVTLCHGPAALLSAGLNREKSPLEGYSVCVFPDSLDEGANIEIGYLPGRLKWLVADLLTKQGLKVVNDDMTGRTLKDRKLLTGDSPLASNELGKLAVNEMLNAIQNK

SAV0551 [2] = biological target: T1, SAV0551; assay: X-ray crystal structure of the complex, […] Å; format: binding; settings: co-crystal with 50 mM glyoxylate, 30% PEG3350, 100 mM BisTris pH 6.5, 293 K; active site at Cys190; additional glyoxylate in aspartate-rich cleft between non-dimer chains
SAV0551 [3] = biological target: T1, SAV0551; assay: 1D 1H NMR and DNPH absorbance ([…] nm) of remaining methylglyoxal; format: biochemical; settings: no cofactor; 20 mM HEPES pH 7.5, 50 mM KCl, 2 mM DTT, 37°C; 60 mM (NMR) or 6 mM substrate; 50 or 10 µM enzyme
[4] = biological target: the molecule itself; assay: SEC; size-exclusion chromatography in solution; conditions not told for this result (the purification used Superdex 75 10/300 GL in 50 mM Tris pH 7.5, 0.15 M NaCl)

C[C@@H](O)C(=O)O [D-lactate]
1D 1H NMR (SAV0551 [1]): new peaks that correspond to the D-lactate produced by SAV0551

O=CC(=O)O [glyoxylate]
X-ray crystal structure of the complex, 3.01 Å (SAV0551 [2]): 5XR3 for SAV0551 with glyoxylate

CC(=O)C=O [methylglyoxal]
1D 1H NMR and DNPH absorbance (550 nm) of remaining methylglyoxal (SAV0551 [3]): methylglyoxal can be used as a substrate for SAV0551 to produce D-lactate

B1: SAV0551 from Staphylococcus aureus Mu50 (natural protein, UniProt P64312 1-292, looked up)
chain: MSQDVNELSKQPTPDKAEDNAFFPSPYSLSQYTAPKTDFDGVEHKGAYKDGKWKVLMIAAEERYVLLENGKMFSTGNHPVEMLLPLHHLMEAGFDVDVATLSGYPVKLELWAMPTEDEAVISTYNKLKEKLKQPKKLADVIKNELGPDSDYLSVFIPGGHAAVVGISESEDVQQTLDWALDNDRFIVTLCHGPAALLSAGLNREKSPLEGYSVCVFPDSLDEGANIEIGYLPGRLKWLVADLLTKQGLKVVNDDMTGRTLKDRKLLTGDSPLASNELGKLAVNEMLNAIQNK
notes: SAV0551, Hsp-type DJ-1/ThiJ/PfpI superfamily protein (Hsp31 homologue, glyoxalase III) of Staphylococcus aureus Mu50 (ATCC 700699); predicted ORF amplified from genomic DNA into pET-21a(+) NdeI/XhoI; monomer ~32 kDa; also called wild-type SAV0551; native SAV0551; source: E. coli BL21(DE3), purified (Ni-NTA, Superdex 75)
stoichiometry N [4]: 2
